According to US20240366930A1, “WEARABLE BIOELECTRONICS FOR PROGRAMMABLE DELIVERY OF THERAPY” (The Regents of the University of California, priority 2023, published 2024):

What was measured:
[1] = test system: mouse wound model (6 mm punch biopsy wound); assay: Wound size analysis from wound images by machine-learning algorithm; type: in vivo; settings: fluoxetine-treated wounds, similar trend to control
Source text: (§1) FIG. 6 illustrates testing of the efficacy of the bioelectronic bandage in vivo on a mouse wound model. We created a 6 mm punch biopsy wound held open by a silicone splint ring to minimize wound contraction (FIG. 6A). Wound contraction is a major wound healing process in mice but not humans. It confounds the histological analysis of the wound reponse to therapy, particularly re-epithelialization [12b, 13]. A gas-permeable, transparent adhesive dressing, Tegaderm™, fixes the bioelectronic bandage to the mouse (FIG. 6A, right) so that the mouse can move around its cage without interference (FIG. 6B). This is possible because the lightweight bandage (2.5 g) represents less than 10% of the mouse weight. For this test, we programmed the bandage to deliver Flx^+ for three days for six hours per day (FIG. 6C).
(§2) We utilized a machine-learning algorithm reported to analyze images of wounds and evaluate their condition and healing progression (FIG. 6D). The algorithm automatically marked the wound area and analyzed the wound size (FIG. 6E). […] To further investigate healing, the wounds were fully excised at the end of the experiment, fixed, and stained with hematoxylin and eosin (H&E) to assess wound re-epithelialization (FIG. 6G-H). […] This variability allowed us to qualitatively correlate the dose of Flx^+ and wound healing as measured by the percentage of re-epithelization (FIG. 6J, right). […]

[2] = test system: M1 and M2 macrophages in the wound; assay: Macrophage analysis of the wound (immunohistochemistry, M1 iNOS / M2 CD206 / F4/80); type: in vivo, mouse
Source text: All cells (stained by DAPI, shown in blue), M1 (stained by iNOS, shown in green), M2 (stained by CD206, shown in red), and overall macrophages (stained by F4/80, shown in gray) were imaged and presented, FIG. 7b is an overlay of M1 and M2 staining, showing the distribution and ratio of macrophage subtypes, FIG. 7c is a box plot showing statistics of the M1/M2 ratio, which was 1.80+/−0.62 in the control group and 1.31+/−0.46 for the fluoxetine-treated group. […] The blue dot represents the M1/M2 ratio from the control group, and the red dot represents the fluoxetine-treated group. The dashed lines indicate the projected wound age, while the solid line represents the trend plotted from the data in the reference..
After analyzing the promising re-epithelization data, we delved deeper into another crucial indicator of wound healing: the M1/M2 macrophage ratio (FIG. 7). Macrophages play a pivotal role in the immune response and are crucially involved in the healing and regeneration of wounds. Although macrophages are phenotypically heterogeneous over a continuum, a simplified classification based on their polarized functions during the different stages of wound repair defines the M1 subtype that carries out pro-inflammatory activities and the M2 subtype that is anti-inflammatory and promotes tissue repair. […] Meanwhile, the number of M2-like macrophages increased in the center of the fluoxetine-treated wound, as depicted in FIG. 7A.

[3] = test system: mouse wound model (6 mm punch biopsy wound held open by a silicone splint ring); assay: In vivo mouse wound model: re-epithelialization (H&E) after Flx+ delivery from wearable bioelectronic bandage
Source text: as §1, §2

CNCCC(Oc1ccc(C(F)(F)F)cc1)c1ccccc1 (stereo not shown) [fluoxetine]
wound size trend over time [1]: slight increase in size at day 1, followed by a decrease on subsequent days
decrease in M1/M2 ratio compared to control ([2]; day 3, n=13 mice, P<0.05): 27.2%
M1/M2 ratio ([2]; fluoxetine-treated group, day 3, n=13 mice): 1.31+/−0.46
number of M2-like macrophages in the center of the wound ([2]; fluoxetine-treated wound, day 3): increased
M1 macrophage infiltration of the center of the wound ([2]; three days after injury, control wound significantly infiltrated): no change
increase in re-epithelialization compared to control ([3]; Flx+ delivered from the bioelectronic bandage, three days, six hours per day, H&E of excised wounds, P<0.05): 39.9%
reepithelization in mouse 2 (>300 nMol per day Flx+) versus mouse 15 (10× smaller dose) ([3]; qualitative dose comparison, bioelectronic bandage): much faster
